Values of other authors as cited in patent publication US7590494B1, “Drug design based on the structure of LTA4 hydrolase” (priority 1999, dated 2009).

Target: T1, LTA4 hydrolase (Homo sapiens, UniProt P09960)
T1 sequence (P09960 1-611): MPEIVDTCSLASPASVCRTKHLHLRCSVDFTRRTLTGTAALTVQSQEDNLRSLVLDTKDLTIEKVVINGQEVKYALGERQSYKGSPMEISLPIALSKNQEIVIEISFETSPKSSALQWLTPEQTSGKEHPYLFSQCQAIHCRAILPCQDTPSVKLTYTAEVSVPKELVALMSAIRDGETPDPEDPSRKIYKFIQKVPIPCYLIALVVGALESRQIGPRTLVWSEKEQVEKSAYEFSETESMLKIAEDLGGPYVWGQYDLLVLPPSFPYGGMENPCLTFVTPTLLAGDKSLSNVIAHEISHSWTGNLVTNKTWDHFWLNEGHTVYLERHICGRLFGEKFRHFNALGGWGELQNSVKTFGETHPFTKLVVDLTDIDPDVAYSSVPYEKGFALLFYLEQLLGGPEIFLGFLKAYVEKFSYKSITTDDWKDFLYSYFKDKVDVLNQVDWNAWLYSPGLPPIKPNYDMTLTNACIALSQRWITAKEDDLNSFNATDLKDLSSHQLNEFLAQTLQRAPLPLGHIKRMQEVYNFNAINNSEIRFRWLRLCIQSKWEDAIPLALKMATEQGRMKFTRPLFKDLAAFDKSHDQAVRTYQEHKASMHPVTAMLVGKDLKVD
Conditions: qualitative statement from Örning et al. 1991

In the case of `CC(C)C[C@H](NC(=O)[C@@H](O)[C@H](N)Cc1ccccc1)C(=O)O` [bestatin], the “inhibition of LTA4 hydrolase” value is listed as “inhibited”.

In the case of `C[C@H](CS)C(=O)N1CCC[C@H]1C(=O)O` [captopril], the “inhibition of LTA4 hydrolase” value is listed as “inhibited”.
